As a reminder, the pIC50 is −log10 of the IC50, conventionally taken in molar units. A higher pIC50 goes with a low IC50.

pIC50: −log10 of the molar value.

Drawing on ChEMBL document CHEMBL1135290, “Synthesis of sub-micromolar inhibitors of MraY by exploring the region originally occupied by the diazepanone ring in the liposidomycin structure” (Bioorg Med Chem Lett, 2002), this text covers IC50 for 52 molecules.

The test is described as follows: Inhibitory activity against Translocase I.
Regarding `NC[C@H]1O[C@@H](O[C@@H](CNCCc2ccc(Oc3ccccc3)cc2)[C@@H]2C[C@@H](O)[C@H](n3ccc(=O)[nH]c3=O)O2)[C@H](O)[C@@H]1O`, the pIC50 was 6.51.

Molecule `NC[C@H]1O[C@@H](O[C@@H](CNC(=O)c2ccccc2)[C@@H]2C[C@@H](O)[C@H](n3ccc(=O)[nH]c3=O)O2)[C@H](O)[C@@H]1O` showed a pIC50 of 4.85. Against the preceding molecule, the pIC50 is 1.66 log units lower.

`NC[C@H]1O[C@@H](O[C@@H](CNCCCN2CCOCC2)[C@@H]2C[C@@H](O)[C@H](n3ccc(=O)[nH]c3=O)O2)[C@H](O)[C@@H]1O` showed a pIC50 of 5.42.

`COc1ccc(CN(C)C[C@H](O[C@@H]2O[C@H](CN)[C@@H](O)[C@H]2O)[C@@H]2C[C@@H](O)[C@H](n3ccc(=O)[nH]c3=O)O2)cc1` gave a pIC50 of 5.85.

The molecule `NC[C@H]1O[C@@H](O[C@@H](CNC(=O)c2ccc(C3CCCCC3)cc2)[C@@H]2C[C@@H](O)[C@H](n3ccc(=O)[nH]c3=O)O2)[C@H](O)[C@@H]1O` gave a pIC50 of 6.41.

`CN(Cc1ccc(-c2ccccc2)cc1)C[C@H](O[C@@H]1O[C@H](CN)[C@@H](O)[C@H]1O)[C@@H]1C[C@@H](O)[C@H](n2ccc(=O)[nH]c2=O)O1`: the pIC50 was 6.77.

Molecule `CCCCCN(CCCCC)C[C@H](O[C@@H]1O[C@H](CN)[C@@H](O)[C@H]1O)[C@@H]1C[C@@H](O)[C@H](n2ccc(=O)[nH]c2=O)O1` gave a pIC50 of 5.01.

Take `NC[C@H]1O[C@@H](O[C@@H](CNCc2ccc(OC(F)(F)F)cc2)[C@@H]2C[C@@H](O)[C@H](n3ccc(=O)[nH]c3=O)O2)[C@H](O)[C@@H]1O`: the pIC50 was 6.52.

`NC[C@H]1O[C@@H](O[C@@H](CNCc2ccc(C(=O)O)cc2)[C@@H]2C[C@@H](O)[C@H](n3ccc(=O)[nH]c3=O)O2)[C@H](O)[C@@H]1O` gave a pIC50 of 5.19.

As to `Cc1ccc(CCNC[C@H](O[C@@H]2O[C@H](CN)[C@@H](O)[C@H]2O)[C@@H]2C[C@@H](O)[C@H](n3ccc(=O)[nH]c3=O)O2)cc1`, the pIC50 was 6.21.

As to `CN1CCCC1CNC[C@H](O[C@@H]1O[C@H](CN)[C@@H](O)[C@H]1O)[C@@H]1C[C@@H](O)[C@H](n2ccc(=O)[nH]c2=O)O1` (some centres not stated), the pIC50 was 5.89.

Take `NC[C@H]1O[C@@H](O[C@@H](CNCC2COc3ccccc3O2)[C@@H]2C[C@@H](O)[C@H](n3ccc(=O)[nH]c3=O)O2)[C@H](O)[C@@H]1O` (some centres not stated): the pIC50 was 5.55. Compared with the last molecule, the pIC50 is 0.34 log units lower.

`NC[C@H]1O[C@@H](O[C@@H](CNCC2CCCO2)[C@@H]2C[C@@H](O)[C@H](n3ccc(=O)[nH]c3=O)O2)[C@H](O)[C@@H]1O` (some centres not stated) gave a pIC50 of 5.04.

For `NC[C@H]1O[C@@H](O[C@@H](CNc2ccc(Oc3ccccc3)cc2)[C@@H]2C[C@@H](O)[C@H](n3ccc(=O)[nH]c3=O)O2)[C@H](O)[C@@H]1O`, the pIC50 was 6.70.

On to `NC[C@H]1O[C@@H](O[C@@H](CNCCc2cccc(C(F)(F)F)c2)[C@@H]2C[C@@H](O)[C@H](n3ccc(=O)[nH]c3=O)O2)[C@H](O)[C@@H]1O`, for which the pIC50 is 6.66.

As to `NC[C@H]1O[C@@H](O[C@@H](CN2CCC(Cc3ccccc3)CC2)[C@@H]2C[C@@H](O)[C@H](n3ccc(=O)[nH]c3=O)O2)[C@H](O)[C@@H]1O`, the pIC50 was 6.46. This pIC50 is 0.20 log units lower than that of the molecule before.

Turning to `NC[C@H]1O[C@@H](O[C@@H](CNCCc2ccc(Cl)cc2)[C@@H]2C[C@@H](O)[C@H](n3ccc(=O)[nH]c3=O)O2)[C@H](O)[C@@H]1O`, the pIC50 is 6.77.

In turn, `NC[C@H]1O[C@@H](O[C@@H](CNCCCn2ccnc2)[C@@H]2C[C@@H](O)[C@H](n3ccc(=O)[nH]c3=O)O2)[C@H](O)[C@@H]1O` had a pIC50 of 5.42.

In turn, `CCCCCCCCCCCCN(C)C[C@H](O[C@@H]1O[C@H](CN)[C@@H](O)[C@H]1O)[C@@H]1C[C@@H](O)[C@H](n2ccc(=O)[nH]c2=O)O1` showed a pIC50 of 6.64.

Turning to `NC[C@H]1O[C@@H](O[C@@H](CNC(=O)Cc2ccc(-c3ccccc3)cc2)[C@@H]2C[C@@H](O)[C@H](n3ccc(=O)[nH]c3=O)O2)[C@H](O)[C@@H]1O`, the pIC50 was 6.37.

Consider `NC[C@H]1O[C@@H](O[C@@H](CNCCCN2CCCC2=O)[C@@H]2C[C@@H](O)[C@H](n3ccc(=O)[nH]c3=O)O2)[C@H](O)[C@@H]1O`, for which the pIC50 was 5.15.

On to `CSCC[C@H](NC(=O)N[C@@H](Cc1cccc(O)c1)C(=O)O)C(=O)NC(C(=O)N/C=C1\C[C@@H](O)[C@H](n2ccc(=O)[nH]c2=O)O1)[C@H](C)N(C)C(=O)[C@@H](N)Cc1cccc(O)c1` (some centres not stated), for which the pIC50 is 7.19.

Take `CN1CCCC1CCNC[C@H](O[C@@H]1O[C@H](CN)[C@@H](O)[C@H]1O)[C@@H]1C[C@@H](O)[C@H](n2ccc(=O)[nH]c2=O)O1` (some centres not stated): the pIC50 is 5.41.

In turn, `CC(=O)N[C@H]1[C@@H](O[C@@H]2O[C@H](CC(O)[C@H]3O[C@@H](n4ccc(=O)[nH]c4=O)[C@H](O)[C@@H]3O)[C@H](O)[C@H](O)[C@H]2NC(=O)/C=C/CC(C)C)O[C@H](CO)[C@@H](N)[C@@H]1O` (some centres not stated) [TUNICAMYCIN] showed a pIC50 of 6.32.

As to `NC[C@H]1O[C@@H](O[C@@H](CNCCc2c[nH]c3ccccc23)[C@@H]2C[C@@H](O)[C@H](n3ccc(=O)[nH]c3=O)O2)[C@H](O)[C@@H]1O`, the pIC50 was 5.54.

`NC[C@H]1O[C@@H](O[C@@H](CNC(=O)c2cccc(OC(F)(F)F)c2)[C@@H]2C[C@@H](O)[C@H](n3ccc(=O)[nH]c3=O)O2)[C@H](O)[C@@H]1O` showed a pIC50 of 6.00.

Consider `NC[C@H]1O[C@@H](O[C@@H](CNCc2ccncc2)[C@@H]2C[C@@H](O)[C@H](n3ccc(=O)[nH]c3=O)O2)[C@H](O)[C@@H]1O`, for which the pIC50 is 5.47.

On to `CCCCCCCNC[C@H](O[C@@H]1O[C@H](CN)[C@@H](O)[C@H]1O)[C@@H]1C[C@@H](O)[C@H](n2ccc(=O)[nH]c2=O)O1`, for which the pIC50 was 6.13.

`NC[C@H]1O[C@@H](O[C@@H](CNC(=O)Nc2ccc(C3CCCCC3)cc2)[C@@H]2C[C@@H](O)[C@H](n3ccc(=O)[nH]c3=O)O2)[C@H](O)[C@@H]1O` gave a pIC50 of 6.80.

Turning to `COc1ccc(CNC[C@H](O[C@@H]2O[C@H](CN)[C@@H](O)[C@H]2O)[C@@H]2C[C@@H](O)[C@H](n3ccc(=O)[nH]c3=O)O2)cc1OC`, the pIC50 is 5.40.

For the molecule `NC[C@H]1O[C@@H](O[C@@H](CNC(=O)c2ccc(-c3ccccc3)cc2)[C@@H]2C[C@@H](O)[C@H](n3ccc(=O)[nH]c3=O)O2)[C@H](O)[C@@H]1O`, the pIC50 is 6.60.

As for `NC[C@H]1O[C@@H](O[C@@H](CNC(=O)c2ccc(Oc3ccccc3)cc2)[C@@H]2C[C@@H](O)[C@H](n3ccc(=O)[nH]c3=O)O2)[C@H](O)[C@@H]1O`, the pIC50 is 6.70.

As to `NC[C@H]1O[C@@H](O[C@@H](CNC(=O)Nc2ccc(Oc3ccccc3)cc2)[C@@H]2C[C@@H](O)[C@H](n3ccc(=O)[nH]c3=O)O2)[C@H](O)[C@@H]1O`, the pIC50 was 6.85. This pIC50 and that of the molecule before are within 0.2 log units of each other.

For the molecule `NC[C@H]1O[C@@H](O[C@@H](CNC(=O)c2cccc(Oc3ccccc3)c2)[C@@H]2C[C@@H](O)[C@H](n3ccc(=O)[nH]c3=O)O2)[C@H](O)[C@@H]1O`, the pIC50 is 6.36. Against the preceding molecule, the pIC50 is 0.49 log units lower.

The molecule `NC[C@H]1O[C@@H](O[C@@H](CNCc2cccs2)[C@@H]2C[C@@H](O)[C@H](n3ccc(=O)[nH]c3=O)O2)[C@H](O)[C@@H]1O` had a pIC50 of 5.64.

In turn, `NC[C@H]1O[C@@H](O[C@@H](CNCCc2ccccc2)[C@@H]2C[C@@H](O)[C@H](n3ccc(=O)[nH]c3=O)O2)[C@H](O)[C@@H]1O` had a pIC50 of 5.80. The pIC50 values of the last two molecules are within 0.2 log units of each other.

On to `CN(Cc1ccccc1)C[C@H](O[C@@H]1O[C@H](CN)[C@@H](O)[C@H]1O)[C@@H]1C[C@@H](O)[C@H](n2ccc(=O)[nH]c2=O)O1`, for which the pIC50 is 5.16.

`COC(=O)c1ccc(CNC[C@H](O[C@@H]2O[C@H](CN)[C@@H](O)[C@H]2O)[C@@H]2C[C@@H](O)[C@H](n3ccc(=O)[nH]c3=O)O2)cc1` showed a pIC50 of 5.92.

Consider `CC(C)(C)c1ccc(CNC[C@H](O[C@@H]2O[C@H](CN)[C@@H](O)[C@H]2O)[C@@H]2C[C@@H](O)[C@H](n3ccc(=O)[nH]c3=O)O2)cc1`, for which the pIC50 is 6.24. Compared with the last molecule, the pIC50 is 0.32 log units higher.

In turn, `NC[C@H]1O[C@@H](O[C@@H](CNCc2ccc(SC(F)(F)F)cc2)[C@@H]2C[C@@H](O)[C@H](n3ccc(=O)[nH]c3=O)O2)[C@H](O)[C@@H]1O` gave a pIC50 of 6.51.

Take `NC[C@H]1O[C@@H](O[C@@H](CN2CCN(CC(=O)N3CCCC3)CC2)[C@@H]2C[C@@H](O)[C@H](n3ccc(=O)[nH]c3=O)O2)[C@H](O)[C@@H]1O`: the pIC50 was 5.72.

The molecule `NC[C@H]1O[C@@H](O[C@@H](CNC(=O)c2ccc(Br)cc2)[C@@H]2C[C@@H](O)[C@H](n3ccc(=O)[nH]c3=O)O2)[C@H](O)[C@@H]1O` had a pIC50 of 6.36. This pIC50 lies 0.64 log units higher than the previous one.

In turn, `CCN(CC)CCN1CCN(C[C@H](O[C@@H]2O[C@H](CN)[C@@H](O)[C@H]2O)[C@@H]2C[C@@H](O)[C@H](n3ccc(=O)[nH]c3=O)O2)CC1` showed a pIC50 of 5.74.

`COC(=O)C1CCN(C[C@H](O[C@@H]2O[C@H](CN)[C@@H](O)[C@H]2O)[C@@H]2C[C@@H](O)[C@H](n3ccc(=O)[nH]c3=O)O2)CC1` had a pIC50 of 5.36.

As for `NC[C@H]1O[C@@H](O[C@@H](CNc2ccc(C3CCCCC3)cc2)[C@@H]2C[C@@H](O)[C@H](n3ccc(=O)[nH]c3=O)O2)[C@H](O)[C@@H]1O`, the pIC50 is 6.74.

As for `NC[C@H]1O[C@@H](O[C@@H](CO)[C@H]2O[C@@H](n3ccc(=O)[nH]c3=O)[C@H](O)[C@@H]2O)[C@H](O)[C@@H]1O`, the pIC50 was 5.30. This pIC50 lies 1.44 log units lower than the previous one.

`NC[C@H]1O[C@@H](O[C@@H](CNCCc2ccncc2)[C@@H]2C[C@@H](O)[C@H](n3ccc(=O)[nH]c3=O)O2)[C@H](O)[C@@H]1O` had a pIC50 of 5.34.

`NC[C@H]1O[C@@H](O[C@@H](CNC(=O)c2ccc(OCc3ccccc3)cc2)[C@@H]2C[C@@H](O)[C@H](n3ccc(=O)[nH]c3=O)O2)[C@H](O)[C@@H]1O` showed a pIC50 of 6.49.

For the molecule `CC(C)c1ccc(C(=O)NC[C@H](O[C@@H]2O[C@H](CN)[C@@H](O)[C@H]2O)[C@@H]2C[C@@H](O)[C@H](n3ccc(=O)[nH]c3=O)O2)cc1`, the pIC50 is 6.40. The pIC50 values of the last two molecules are within 0.2 log units of each other.

In the case of `NC[C@H]1O[C@@H](OC[C@H]2O[C@@H](n3ccc(=O)[nH]c3=O)[C@H](O)[C@@H]2O)[C@H](O)[C@@H]1O`, the pIC50 is 4.30.

As for `NC[C@H]1O[C@@H](O[C@@H](CNCc2cccnc2)[C@@H]2C[C@@H](O)[C@H](n3ccc(=O)[nH]c3=O)O2)[C@H](O)[C@@H]1O`, the pIC50 was 5.32. This pIC50 is 1.02 log units higher than that of the molecule before.

`NC[C@H]1O[C@@H](O[C@@H](CN2CCCCC2)[C@@H]2C[C@@H](O)[C@H](n3ccc(=O)[nH]c3=O)O2)[C@H](O)[C@@H]1O` had a pIC50 of 5.23.
